Assay results taken from US4397839A, “Surface active material and process for preparing same” (Tokyo Tanabe Company, Limited, priority 1981, dated 1983).
“And” between values parts separate entries of the source, which are not always exact repeats. Identical values can stand only once. Counter-ions that a name gives are not always drawn.

Test system: mature rabbits suffering from septicemia induced by Escherichia coli, complicated by RDS
Format: in vivo, rabbit
Experimental: Specifically, 32 rabbits in the abovedescribed morbid state were divided into 4 groups including one control (or no-treatment) group. […] Then, all groups were comparatively examined for the degree of improvement in respiratory function. The morbid rabbits were prepared and the degree of lung injury was evaluated according to the methods of Cuevas et al. (Archives of Surgery, 104, 319, 1972), and the circulating titer of endotoxin in blood was determined according to the method of Reinhold et al. (Proceedings of the Society for Experimental Biology and Medicine, 137, 334, 1971). The treatment with the material of the invention and/or kanamycin sulfate was carried out within 24 hours before and after the onset of RDS. The material of the invention was instilled 1-6 times into the airway in a dose of 50-100 mg/kg for each treatment, while 80-150 mg/kg of kanamycin sulfate was intramuscularly injected in 2-8 divided doses. Two days after treatment, the subjects were examined for survival and the degree of lung injury. […] The degree of lung injury becomes severer as the value increases.

NC[C@H]1O[C@H](O[C@H]2[C@H](O)[C@@H](O[C@H]3O[C@H](CO)[C@@H](O)[C@H](N)[C@H]3O)[C@H](N)C[C@@H]2N)[C@H](O)[C@@H](O)[C@@H]1O [kanamycin sulfate]
Circulating titer (endotoxin in blood) (individual animals (one line per subject)): 0.10 µg/mL and 0.01 µg/mL and 0.00 µg/mL and 0.40 µg/mL and 0.02 µg/mL
Survival (individual animals, two days after treatment): No and Yes
Degree of lung injury (individual animals, two days after treatment, severer as the value increases): 3 and 0 and 1 and 2
